The record followed here is publication PMC8344022, “Small-molecule inhibitor of AF9/ENL-DOT1L/AF4/AFF4 interactions suppresses malignant gene expression and tumor growth” (Theranostics, 2021).

One assay has as its target DOT1L (Homo sapiens, UniProt Q8TEK3). In words: DOT1L enzyme inhibition. The conditions noted are these: at 100 µM (Figure S3: 30 or 100 µM). In kind it is biochemical. Here is the method: (§1) Inhibition of DOT1L, LSD1 and p300 was performed using our previously reported methods, [37], [38].
(§2) LSD1, and p300 histone acetyltransferase at 30 or 100 µM, using our previous reported methods [Ref. 36, 37,
(§3) (1 picture or pasted object on this page, not shown here)

For the next assay, the system named is Molm-13 cells. The assay can be described thus: Annexin V apoptosis assay (flow cytometry). In kind it is cell-based. The method, then: Compound 1 (5 μM for 5 days) induced significant differentiation, with more cell populations expressing CD14 and CD11b, two cell surface proteins for macrophages/monocytes (Figure 5B).
Flow cytometry. […] Apoptosis was determined using the FITC Annexin V Apoptosis Detection Kit I (BD Bioscience) using the manufacturer's protocol. For other FACS assays, cells were labeled with fluorochrome-conjugated monoclonal antibodies against human CD14 and CD11b (BD Biosciences) according to the manufacturer's recommendation. Cells were analyzed using a FACS Calibur (BD Biosciences/Applied Biosystems) and data were processed using the program Flowjo (version7.6.5).
For orientation: In flow cytometry, cells or beads pass a laser one at a time.

The subject of assay [1] is HoxA9, Meis1 and Myc expression in Molm-13 cells. In words: qPCR of MLL target genes. In kind it is cell-based. The conditions noted are these: 4 days. Here is the method:
(§4) Next, compound 1 was tested for its ability to change expression of characteristic MLL-r leukemia genes HoxA9, Meis1 and Myc. Myc is also overexpressed in a broad range of AML and other cancers. […] (Figure S5), presumably because SEC is not recruited there.
(§5) RNA extraction and Quantitative real-time PCR (qPCR). 10^5 cells/ml were incubated with a compound for 4 days and the RNA was extracted using RNeasy mini kit (#74104, Qiagen). 100-1000 ng of total RNA was reverse transcribed using iScript™ Reverse Transcription Supermix (Bio-Rad) using the manufacturer's protocol. Quantitative real-time PCR was carried out using Fast SYBR Green Master Mix (Applied Biosystems) according to the manufacturer's instructions. Measurements were performed in triplicate, using GAPDH as the reference gene. Real-time PCR was performed using Biosystems Step One Plus detection system. The following sequences of primers are used: […]
On the technique in general: Real-time PCR tracks product formation cycle by cycle.

Assay [2] has as its system HoxA9, Meis1 and Myc expression in MV4;11 cells. In words: qPCR of MLL target genes. In kind it is cell-based. The conditions noted are these: 4 days. Here is the method: as §4, §5
The subject of assay [3] is AF9/ENL-DOT1L/AF4/AFF4 interactions. The assay can be described thus: Biochemical assays of PPIs between AF9/ENL and DOT1L/AF4/AFF4 (overall). In kind it is binding, human. Particulars: for IC50: range over the PPIs tested, read-out: IC50s against AF9/ENL-DOT1L/AF4/AFF4 interactions (range over PPIs). Here is the method: Because both FP and Alpha assays are unsuitable for studies of AF9/ENL binding kinetics, we compared the IC50s of the inhibitor with the Kds of the PPIs (Table 1).
Alpha assays. Alpha assays were developed using Perkin-Elmer AlphaLisa anti-MBP kit, which contains streptavidin donor beads and anti-MBP acceptor beads. The assay was performed using a MBP-protein (5 nM), a biotinylated peptide (40 nM), and increasing concentrations of a compound in 25 µL buffer (PBS with 0.5 % BSA, pH 7.5) in 384-well plates according to the manufacturer's protocol and measured with a Tecan SPARK microplate reader. Data were imported into Prism (version 5.0), and IC50 values from 3 independent experiments with standard deviation were obtained by using a standard dose-response curve fitting.
(§6) Fluorescence polarization assay. It was performed in 96-well black microplates with each well containing a Fluorescein-labeled peptide (2 nM) and increasing concentration of a AF9/ENL protein in a buffer (20 mM HEPES, pH 7.5, 0.01% Triton X-100, 100 µL) for Kd determination. For IC50 determination, a Fluorescein-labeled peptide (2 nM), AF9/ENL protein (100 nM) and increasing concentration of a compound in the same buffer were placed in each well. Upon incubation of 1h, the FP value of each well was determined using a Tecan SPARK microplate reader. Data were similarly processed to obtain Kd or IC50 values.

The target of another assay is T1, AF9-DOT1L interaction (Homo sapiens, UniProt P42568).
T1 construct: cDNA for human AF9 AHD domain (475-568) and ENL AHD domain (489-559) was synthesized; made in house; host or cells: E. coli BL21(DE3)
T1 sequence (P42568 475-568): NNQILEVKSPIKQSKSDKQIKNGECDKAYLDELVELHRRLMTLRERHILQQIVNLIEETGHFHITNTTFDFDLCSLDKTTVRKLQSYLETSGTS
The assay can be described thus: Fluorescence polarization (FP) inhibition assay, AF9-DOT1L. In kind it is binding.
Description: We developed an Alpha (amplified luminescent proximity homogeneous assay) assay to determine the binding and inhibition of the PPI between maltose-binding protein (MBP)-tagged AF9 AHD and a biotin-labeled DOT1L peptide, using AlphaLisa streptavidin donor beads and anti-MBP acceptor beads. Laser excitation to the donor beads generates singlet oxygen radicals, which can travel for <200 nm in solution and cannot reach the free acceptor beads. The PPI brings the DOT1L coated donor beads and AHD coated acceptor beads together, allowing the radicals to activate the acceptor beads and produce luminescence. […] We also developed a fluorescence polarization (FP) assay. A fluorescein-labeled DOT1L peptide has a higher freedom in solution with a lower polarization value.
as §6
(In general: In fluorescence polarisation assays a small probe gives low polarisation when free and higher when bound to something large.)

Assay [4] deals with H3K79me2 at gene promoters in Molm-13 cells. In words: Chromatin immunoprecipitation (ChIP)-qPCR. In kind it is cell-based. The method, then: as §4
Chromatin immunoprecipitation. […] Cells were lysed with nuclear lysis buffer and sonicated to ~100-1000 bp fragments, which was incubated at 4 °C overnight with the H3K79me2 antibody (#5427, Cell signaling) and IgG (C15410206, Diagenode). Protein A/G Magnetic Beads (10 µL, Novus Biologicals) were added and incubated for 2 h. The beads were washed 3x with RIPA buffer and 2x with TE buffer. DNA on the beads was eluted for 2 hours at 68 °C in 100 μL of an elution buffer (20 mM Tris pH 7.5, 5 mM EDTA, 50 mM NaCl, 1% SDS, 50 μg/ml proteinase K) (2x), and purified using a ChIP DNA Clean & Concentrator kit (Novus Biologicals). qPCR was done using the method described above.

In a further assay the target is LSD1 (Homo sapiens, UniProt O60341). The assay can be described thus: LSD1 enzyme inhibition. In kind it is biochemical. The conditions noted are these: at 100 µM (Figure S3: 30 or 100 µM). Here is the method: as §1, §2, §3
Assay [5] deals with T2, AF9 AHD bound to DOT1L-coated beads (Homo sapiens, UniProt P42568).
T2 construct: cDNA for human AF9 AHD domain (475-568) and ENL AHD domain (489-559) was synthesized; made in house; host or cells: E. coli BL21(DE3)
In words: Western blot based pull-down assay. In kind it is binding. The conditions noted are these: increasing concentrations. Here is the method: A non-optical pull-down assay was used to further validate compound 1. DOT1L-coated beads were incubated with AF9 AHD in the presence of increasing concentrations of 1.
Western blot based pull-down assay. Biotinylated DOT1L peptide (0.25 mg/mL) was incubated with streptavidin agarose beads in PBS containing 0.1% Triton X-100 (400 µL) for 3h to yield, after washing, DOT1L-coated beads. MBP-AF9 AHD (0.2 µM, 40 µL) was pre-incubated with a compound for 30 min before adding to the beads. After 6 hours incubation at 4 °C, the beads were collected, thoroughly washed, and subjected to SDS-PAGE and analyzed by Western blot using an MBP Mouse mAb (#2396, Cell signaling).

Read-outs that look alike come from different tables or passages of the source.

DOT1L, sequence (Q8TEK3 1-472): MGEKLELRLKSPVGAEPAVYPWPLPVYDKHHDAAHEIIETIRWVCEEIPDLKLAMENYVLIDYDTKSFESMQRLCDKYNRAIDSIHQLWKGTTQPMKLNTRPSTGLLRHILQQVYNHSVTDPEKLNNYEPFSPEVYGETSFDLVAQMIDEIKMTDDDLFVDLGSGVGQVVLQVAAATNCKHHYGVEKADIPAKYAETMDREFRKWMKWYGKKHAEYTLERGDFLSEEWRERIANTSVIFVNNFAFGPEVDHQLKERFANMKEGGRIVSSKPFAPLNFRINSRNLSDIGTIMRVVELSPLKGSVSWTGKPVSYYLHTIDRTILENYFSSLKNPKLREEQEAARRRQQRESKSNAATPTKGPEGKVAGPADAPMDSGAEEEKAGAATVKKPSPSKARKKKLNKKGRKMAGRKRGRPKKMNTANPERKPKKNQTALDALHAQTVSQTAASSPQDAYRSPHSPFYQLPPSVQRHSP

With `CC(C)(C)c1ccc(-n2cc(C(=O)NC3CCNCC3)nc2-c2ccccc2)cc1` [Compound 1], the “Inhibition of DOT1L enzyme activity” value on DOT1L is listed as “did not significantly inhibit”. Further, the Apoptosis entry was “did not cause significant apoptosis” with Molm-13 cells (5 µM, 5-day incubation); 44.2% in the assay on Molm-13 cells (10 µM, 5 days); 73.6% with Molm-13 cells (15 µM, 5 days); under 5% in the assay on Molm-13 cells (short-term 2- or 3-day incubation). Moreover, the “Expression of MLL target genes HoxA9, Meis1 and Myc” value in assay [1] and in assay [2] was “dose-dependently suppressed expression” throughout. In addition, in assay [3] (comparison of IC50s with Kds of the PPIs), the Mode of inhibition result is on record as “non-competitive mode of inhibition”. The IC50 in [3] (listed as Compound-1) was 0.9 to 3.5 µM; in assay [3], 0.94 to 3.5 µM; at AF9-DOT1L interaction, 3.2 µM. For the same molecule, the “H3K79-Me2 in a non-transcribed DNA region” value in assay [4] is reported as “did not significantly reduce H3K79-Me2”. In addition, the “H3K79me2 in the gene promoters of HoxA9 and Myc” value in assay [4] (5 μM for 4 days) is listed as “decreased levels of H3K79me2”. The “Inhibition of LSD1 enzyme activity” value on LSD1 is “did not significantly inhibit”. Besides, the “Beads-bound AF9 AHD in pull-down (Western blot)” value in [5] is on record as “reduced beads-bound AF9 AHD with a similar IC50”.
